Test results from PubChem BioAssay (NCI).
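48-hour exposure; five concentrations; linearly interpolated endpoints. GI50: concentration for 50% inhibition of growth. TGI: concentration producing complete growth inhibition.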 Peptide text beside a SMILES is read from it. * marks the point of attachment. X26 = Clc1c(Cl)c(Cl)c(O*)c(Cl)c1Cl; Boc = CC(C)(C)OC(=O)*; OBn = c1ccc(CO*)cc1; Bn = c1ccc(C*)cc1

Assays:
Assay in all cases: NCI-60 cell line screen, 48 h
[1] = tested on: SK-MEL-5 melanoma
[2] = tested on: KM12 colon
[3] = tested on: PC-3 prostate
[4] = tested on: SK-MEL-2 melanoma
[5] = tested on: CAKI-1 renal
[6] = tested on: NCI/ADR-RES ovarian
[7] = tested on: A549 NSCLC
[8] = tested on: ACHN renal
[9] = tested on: SNB-75 CNS
[10] = tested on: T-47D breast

| SMILES | TGI [1] [µM] | TGI [2] [µM] | TGI [3] [µM] | TGI [4] [µM] | TGI [5] [µM] | TGI [6] [µM] | TGI [7] [µM] | TGI [8] [µM] | TGI [9] [µM] | TGI [10] [µM] | GI50 [9] [µM] | GI50 [1] [µM] | GI50 [2] [µM] | GI50 [3] [µM] | GI50 [10] [µM] | GI50 [4] [µM] | GI50 [8] [µM] |
| --- | --- | --- | --- | --- | --- | --- | --- | --- | --- | --- | --- | --- | --- | --- | --- | --- | --- |
| CC[N+]1(C)CCC(O)(c2ccc(C)cc2)C(C(=O)c2ccc(C)cc2)C1 (stereo unspecified) | > 100 | > 100 | > 100 | > 100 | 61.4 | > 100 | > 100 | 48 |  |  |  |  |  |  |  |  |  |
| CCCCCCc1cc2cc(-c3csc(-c4ccc(OC)cc4)n3)c(=O)oc2cc1O | 47.7 | 68.2 | 41.5 | 32 | 20 |  | 32.8 | 25.1 | 47.2 | 24.1 |  |  |  |  |  |  |  |
| N#Cc1nc(CCCN2C(=O)c3ccccc3C2=O)oc1N | > 100 |  | > 100 | > 100 | > 100 | > 100 | > 100 | > 100 |  | > 100 |  |  |  |  |  |  |  |
| Clc1ccc(OCc2nnc(COc3ccc(OCc4nnc(COc5ccc(Cl)cc5Cl)o4)c(Cl)c3)o2)c(Cl)c1 | > 100 | > 100 | > 100 | > 100 | 54.9 | 66.7 | > 100 | > 100 |  | > 100 |  |  |  |  |  |  |  |
| Cc1cc(OCc2nnc3sc(NC(=O)c4ccccc4)nn23)ccc1Cl | > 100 | 52.6 | > 100 | 80.5 | 36 | > 100 | > 100 | 42.9 |  | > 100 |  |  |  |  |  |  |  |
| c1c(N2CCOCC2)ssc1=[N+]1CCOCC1 | > 100 | > 100 |  | > 100 | > 100 |  | > 100 | > 100 | > 100 |  |  |  |  |  |  |  |  |
| CC(C)CC(NC(=O)C(CCC(=O)OCc1ccccc1)NC(=O)OC(C)(C)C)C(=O)NC(COCc1ccccc1)C(=O)NC(Cc1ccccc1)C(=O)Oc1c(Cl)c(Cl)c(Cl)c(Cl)c1Cl (stereo unspecified) (Boc-E(OBn)LS(Bn)F-X26; configuration not given here) | 40.9 | 47.1 | > 100 | 69 | 48.4 | 86.8 | 96 | 57.8 | > 100 |  |  |  |  |  |  |  |  |
| CCOc1snc(C(Cl)(Cl)Cl)c1Cl | 21.1 | 56.7 | > 100 |  | 83.7 |  | 95.4 | > 100 | 54.9 |  |  |  |  |  |  |  |  |
| CC(=O)OC1CC2(O)C(CCC3(C)C(c4ccc(=O)oc4)CCC32O)C2(C)C1=CC(O)C1OC12 (stereo unspecified) | 0.0435 | 0.301 |  | 0.222 | 0.0968 | 0.284 | 0.0569 |  | 0.3 |  |  |  |  |  |  |  |  |
| CC(C)=CCC12Cc3ccc(O)cc3C(C(C)CN1)C2C (stereo unspecified) |  | > 100 |  |  |  | > 100 | > 100 | > 100 | > 100 | > 100 |  |  |  |  |  |  |  |
| C[C@H](c1ccccc1)N1C(=O)[C@@H](OCc2ccccc2)[C@H]1[C@H](COC(=O)COCc1ccccc1)OCc1ccccc1 | > 100 | > 100 | > 100 | > 100 |  |  | > 100 | > 100 | > 100 |  |  |  |  |  |  |  |  |
| N#Cc1nc(C2CCC(=O)O2)oc1N (stereo unspecified) | > 100 | > 100 | > 100 | > 100 | > 100 | > 100 |  | > 100 | > 100 |  |  |  |  |  |  |  |  |
| CCCO/N=[N+](\[O-])N(CC)CC | > 100 | > 100 |  | > 100 |  |  | > 100 | > 100 |  |  |  |  |  |  |  |  |  |
| Oc1c(OCc2nnc(CCCCCCCCc3nnc(COc4ccc5ccccc5c4O)o3)o2)ccc2ccccc12 | > 100 | > 100 | > 100 | > 100 | > 100 | > 100 | > 100 | > 100 | > 100 |  |  |  |  |  |  |  |  |
| COc1ccc(OC)c(NC(=O)C(=O)C(C(=O)c2ccccc2F)C2OC(=O)c3ccccc32)c1 (stereo unspecified) | > 100 | > 100 |  | > 100 | > 100 |  | > 100 | > 100 | > 100 |  |  |  |  |  |  |  |  |
| CCOC(=O)Cn1nnc2cc(Nc3c(C)[n+]([O-])c4cc(F)c(OCC)cc4[n+]3[O-])ccc21 | > 100 | > 100 | > 100 | > 100 | > 100 | > 100 |  | > 100 |  | > 100 |  |  |  |  |  |  |  |
| Cc1cnc2[nH]c(-c3cccc(F)c3)cc(=O)c2c1 |  | 1.7 |  |  | > 100 | 0.0395 | > 100 | > 100 | > 100 | > 100 |  |  |  |  |  |  |  |
| CCN1CCN(Cc2ccc(NC(=O)Nc3ccc(-n4ccc5c(NC(=O)c6ccccc6)nccc54)cc3)cc2C(F)(F)F)CC1 | 2.02 | 1.45 | 4.68 | > 100 |  |  |  | 2.11 | 2.68 | 15.9 | 1.37 | 0.764 | 0.0271 | 1.16 | 3.54 | 3.62 | 0.907 |
| O=C1N/N=C\c2ccc(cc2)OCc2cccc(n2)COc2ccc(cc2)/C=N\NC1=O |  | > 25 | > 25 | > 25 |  | > 25 | > 25 | > 25 | > 25 |  |  |  |  |  |  |  |  |
